Results from PMC11249646, “Small-Molecule Disruptors of the Interaction between Calcium- and Integrin-Binding Protein 1 and Integrin αIIbβ3 as Novel Antiplatelet Agents” (ACS Pharmacology & Translational Science, 2024).
Where two headings read alike, the source gives them in different places.

Tests used:
[1] = biological target: T1, GST-CIB1 : F-scrambled peptide (Homo sapiens, UniProt Q99828); experiment: FP scrambled-peptide counter screen, 1536-well format; format: binding; settings: for Confirm? (counterscreen): YES/NO; for Curve Class (counterscreen) / COUNTERSCREEN Curve Class: qHTS curve class; for IC50: read-out: IC50 [μM] (counterscreen)
T1 construct: made in house; host or cells: BL-21 plus RIL cells (E. coli)
T1 sequence (Q99828 1-191): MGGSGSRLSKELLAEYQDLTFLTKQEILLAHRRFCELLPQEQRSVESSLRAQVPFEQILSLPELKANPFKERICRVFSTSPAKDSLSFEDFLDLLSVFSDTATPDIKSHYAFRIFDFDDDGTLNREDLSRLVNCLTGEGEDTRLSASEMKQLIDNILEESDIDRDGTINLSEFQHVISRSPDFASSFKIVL

[2] = biological target: T2, CIB1 and αIIb interaction (CIB1-GST : F-αIIb peptide) (Homo sapiens, UniProt Q99828); experiment: FP assay, 1536-well qHTS format (primary and confirmatory screen); format: binding; settings: for Curve Class (confirmatory screen) / CONFIRMATORY SCREEN Curve Class: qHTS curve class
T2 construct: made in house; host or cells: BL-21 plus RIL cells (E. coli)
T2 sequence (Q99828 1-191): T1 sequence (Q99828 1-191)

[3] = counterscreen, negative sign = inhibitory curve
[4] = confirmatory screen, negative sign = inhibitory curve
[5] = confirmatory screen, read-out: IC50 [μM] (confirmatory screen)
[6] = qHTS primary screen hits, Table S2, negative = inhibition
[7] = qHTS primary screen hits, Table S2, negative sign = inhibitory curve, several classes where COUNT > 1
[8] = qHTS primary screen hits, Table S2, read-out: IC50
[9] = qHTS primary screen hits, Table S2, negative sign = inhibitory curve
[10] = qHTS FP screen hits, Table S2, negative = inhibition
[11] = qHTS FP screen hits, Table S2, read-out: IC50
[12] = Table S3, counterscreen, a negative sign marks inhibitory curves
[13] = Table S3, counterscreen, negative = inhibition
[14] = Table S3, confirmatory screen, YES/NO call
[15] = Table S3, confirmatory screen, a negative sign marks inhibitory curves
[16] = Table S3, confirmatory screen, negative = inhibition
[17] = Table S3, confirmatory screen, read-out: IC50 [μM] (confirmatory screen)
[18] = qHTS FP screen hits, Table S2, one class per curve where COUNT > 1, negative sign = inhibitory curve

SMILES | Efficacy (%) (counterscreen) ([1]; counterscreen) | Confirm? (counterscreen) ([1]; counterscreen) | Curve Class (counterscreen) [1, 3] | Efficacy (%) (confirmatory screen) ([2]; confirmatory screen) | Confirm? (confirmatory screen) ([2]; confirmatory screen, YES/NO) | Curve Class (confirmatory screen) [2, 4] | IC50 [2, 5] | Efficacy (%) [2, 6] | Curve Class [2, 7] | IC50 [2, 8] | IC50 ([1]; counterscreen) | other results
Cl.O=S(=O)(Nc1nccs1)c1ccc(NCc2cc(Cl)ccc2O)cc1 [NCGC00273561-01] | -36% | YES | 4 | -48% | YES | -2.4 | 50.1 µM | -27% | -1.4 | 20 µM | – | –
Nc1ccc(CNc2ccc(S(=O)(=O)Nc3nccs3)cc2)c(O)c1.O=C(O)C(F)(F)F [NCGC00273962-01] | -61% | – | -2.2 | -75% | YES | -3 | 89.1 µM | -29% | – | 39.8 µM | 50.1 µM | Curve Class [2, 9]: -2.4
Cl.O=S(=O)(Nc1nccs1)c1ccc(NCc2cc(Cl)cc(Br)c2O)cc1 [NCGC00273965-01] | – | – | – | – | – | – | – | -33% | -1.4 | 11.2 µM | – | COUNTERSCREEN Efficacy (%) ([1]; counterscreen): 0%; COUNTERSCREEN Curve Class ([1]; counterscreen): 4; CONFIRMATORY SCREEN Efficacy (%) ([2]; confirmatory screen): -19%; CONFIRMATORY SCREEN Curve Class ([2]; confirmatory screen): 4
O=C(O)C(F)(F)F.O=S(=O)(Nc1nccs1)c1ccc(NCc2cc(F)cc(Cl)c2O)cc1 [NCGC00273967-01] | 170% | YES | 3 | -40% | YES | -1.4 | 31.6 µM | -28% | -1.4 | 1.8 µM | 39.8 µM | –
CC1=NN(c2ccc(C)c(C)c2)C(=O)/C1=N/Nc1cccc(-c2cccc(C(=O)O)c2)c1O [NCGC00274067-01] | -37% | – | -1.2 | -83% | YES | -2.2 | 22.4 µM | – | – | – | 35.5 µM | Efficacy (%) [2, 10]: -69%; IC50 [2, 11]: 44.7 µM
COc1cccc(CN(C)c2ccc(S(=O)(=O)Nc3nccs3)cc2)c1O.O=C(O)C(F)(F)F [NCGC00318978-01] | – | – | – | – | – | – | – | – | – | – | – | Curve Class (counterscreen) [1, 12]: -2.4; Efficacy (%) (counterscreen) [1, 13]: -33%; IC50 ([1]; Table S3, counterscreen): 39.8 µM; Confirm? (confirmatory screen) [2, 14]: YES; Curve Class (confirmatory screen) [2, 15]: -2.4; Efficacy (%) (confirmatory screen) [2, 16]: -35%; IC50 [2, 17]: 44.7 µM; Efficacy (%) [2, 10]: -24%; IC50 [2, 11]: 17.8 µM
O=C(O)C(F)(F)F.O=S(=O)(Nc1nc2ccccc2s1)c1ccc(NCc2ccc(Br)cc2O)cc1 [NCGC00319026-01] | -15% | YES | 4 | -45% | YES | -2.4 | – | – | – | – | – | Efficacy (%) [2, 10]: -50%; Curve Class [2, 18]: -2.2; IC50 [2, 11]: 39.8 µM
Cc1cc(SCc2sc(-c3ccc(Cl)c(Cl)c3)nc2C)ccc1OCC(=O)O.O=C(O)C(F)(F)F [NCGC00319075-01] | 78% | YES | – | -74% | YES | -3 | 35.5 µM | -41% | – | 34 µM | 79.4 µM | –
COc1cc(C=C2C(=O)Nc3ccccc32)cc(OC)c1O [NCGC00343740-01] | -44% | – | -2.4 | -81% | YES | -2.2 | – | -53% | -2.2 | 44.7 µM | 44.7 µM | –
Cc1ccc(S(=O)(=O)Nc2cnccc2C(=O)Nc2ccc(-c3nnn[nH]3)cc2)cc1.O=C(O)C(F)(F)F [NCGC00343837-01] | -40% | YES | 4 | -63% | YES | -2.4 | 35.5 µM | -24% | – | 31.6 µM | – | Curve Class [2, 9]: -2.4
O=C(O)C(F)(F)F.O=S(=O)(Nc1ccc(N2CCNCC2)cc1)c1ccc(NCc2ccc(Br)cc2O)cc1 [NCGC00343874-01] | – | – | – | – | – | – | – | -76% | -2.2 | 79.4 µM | – | Curve Class (counterscreen) [1, 12]: -2.2; Efficacy (%) (counterscreen) [1, 13]: -58%; IC50 ([1]; Table S3, counterscreen): 44.7 µM; Confirm? (confirmatory screen) [2, 14]: YES; Curve Class (confirmatory screen) [2, 15]: -2.4; Efficacy (%) (confirmatory screen) [2, 16]: -41%
N#Cc1ccc(NS(=O)(=O)c2ccc(NC(=O)Cc3ccc(F)c(Cl)c3)cc2)cc1.O=C(O)C(F)(F)F [NCGC00343891-01] | – | – | – | – | – | – | – | -15% | -1.4 | 4 µM | – | Curve Class (counterscreen) [1, 12]: 3; Efficacy (%) (counterscreen) [1, 13]: 154%; IC50 ([1]; Table S3, counterscreen): 89.1 µM; Curve Class (confirmatory screen) [2, 15]: 3; Efficacy (%) (confirmatory screen) [2, 16]: 72%
C[C@@H](NCc1cc2ccccc2[nH]1)c1cccc2ccccc12.Cl [NCGC00344505-01] | – | – | – | – | – | – | – | -31% | -2.4 | 21.5 µM | – | Curve Class (counterscreen) [1, 12]: 4; Efficacy (%) (counterscreen) [1, 13]: -21%; Curve Class (confirmatory screen) [2, 15]: 4; Efficacy (%) (confirmatory screen) [2, 16]: -25%
COc1ccc(S(=O)(=O)Nc2cnccc2C(=O)Nc2nc(-c3ccccc3)cs2)cc1.O=C(O)C(F)(F)F [NCGC00344944-01] | -81% | – | -2.2 | -81% | YES | -2.2 | – | – | – | – | 44.7 µM | Efficacy (%) [2, 10]: -52%; Curve Class [2, 18]: -2.2; IC50 [2, 11]: 39.8 µM
O=C(Nc1nc(-c2ccccc2)cs1)c1ccncc1NS(=O)(=O)c1cccs1.O=C(O)C(F)(F)F [NCGC00345032-01] | -52% | YES | -2.2 | -85% | YES | -1.2 | 25.1 µM | -59% | -2.2 | – | 79.4 µM | –
CO[C@@H]1C(N(C)C(=O)c2ccccc2)C[C@H]2O[C@]1(C)n1c3ccccc3c3c4c(c5c6ccccc6n2c5c31)C(=O)NC4=O (stereo partly drawn) [NCGC00345083-01] | – | – | – | – | – | – | – | -67% | -2.2 | 19.2 µM | – | Curve Class (counterscreen) [1, 12]: -1.1; Efficacy (%) (counterscreen) [1, 13]: -150%; IC50 ([1]; Table S3, counterscreen): 22.4 µM; Confirm? (confirmatory screen) [2, 14]: YES; Curve Class (confirmatory screen) [2, 15]: -1.2; Efficacy (%) (confirmatory screen) [2, 16]: -78%; IC50 [2, 17]: 14.1 µM
CN(C)CCN1C(=O)c2cccc3cc(N)cc(c23)C1=O [NCGC00346513-01] | – | – | – | – | – | – | – | -32% | -1.2 | 1.1 µM | – | COUNTERSCREEN Efficacy (%) ([1]; counterscreen): -24%; COUNTERSCREEN Curve Class ([1]; counterscreen): 4; CONFIRMATORY SCREEN Efficacy (%) ([2]; confirmatory screen): -50%; CONFIRMATORY SCREEN Curve Class ([2]; confirmatory screen): 4
